Results reported in US8063018B2, “Bivalent thrombin binding molecules comprising linkers” (National Research Council of Canada, priority 2004, dated 2011).

Key:
[1] = molecular target: T1, thrombin (Homo sapiens, UniProt P00734); assay: Kinetic amidolytic assay with chromogenic substrate S-2238 (inhibition constants); assay type: biochemical; details: 25° C., S-2238, clotting buffer; read-out: KI, nM (25° C.)
Method: (§1) Peptides were freeze-dried and their identity was confirmed by ion-spray mass spectrometry. Clotting assays were carried out by use of the protocols described previously (DiMaio and others, 1990, 21698-21703; Witting and others, 1992, 737-743). The assay employs bovine plasma fibrinogen dissolved at 0.1% in 50 mM Tris-Cl, 100 mM NaCl, 0.1% PEG-8000 at pH 7.6 (i.e. the clotting buffer). Each assay mixture contained a certain concentration of the peptide, and the reaction was started by the addition of human thrombin to a final concentration of 0.6-1.2 nM. Optical absorbance increase at 420 nm caused by fibrin clot formation was measured at 25° C. or 37° C. using the Spectramax plate reader. The onset clotting time was determined as an intersection of the baseline and the extrapolated linear portion of the OD change curve. The concentration of a peptide needed to double the clotting time was defined as IC50 (DiMaio and others, 1990, 21698-21703). Kinetic amidolytic curves were obtained in clotting buffer at 25° C. using eight inhibitor concentrations and three to five concentrations of the chromogenic substrate S-2238 (Chromogenix) (DiMaio and others, 1990, 21698-21703). Inhibition constants were extracted from Lineweaver-Burk equation by using weighted linear regression. Errors in Ki determination were estimated by using Monte-Carlo sampling with 1-3% variance of the experimental points. Peptide concentrations were determined spectrophotometrically using predicted extinction coefficients at 278 nm (Gill and von Hippel, 1989, 319-326).

[2] = molecular target: T1, thrombin; assay: Fibrinogen clotting assay catalyzed by thrombin; assay type: biochemical; details: concentration needed to double the clotting time
Method: Curves represent OD420 time course after the addition of 0.6 nM thrombin in the presence of (♦) 0 nM; (◯) 0.5 nM; (□) 1 nM; (Δ) 1.5 nM; (⋄) 2.5 nM; (●) 3.75 nM; (▪) 6.25 nM; and (▴) […] of the inhibitor with linker (GS)n and n=2 (SEQ. ID. NO. 50) (a); n=4 (SEQ. ID. NO. 51) (b); n=6 (SEQ. ID. NO. 52) (c); n=8 (SEQ. ID. NO. 53) (d); n=10 (SEQ. ID. NO. 54) (e); and in the presence of (♦) 0 nM; (◯) 1 nM; (□) 2 nM; (Δ) 4 nM; (⋄) 6 nM; (●) 10 nM; (▪) 15 nM; and (▴) 25 nM of the inhibitor with linker (GS)n and n=12 (SEQ. ID. NO. 55) (f); n=14 (SEQ. ID. NO. 56) (g), at 37° C. The onset clotting time was determined as an intersection of the baseline and the extrapolated linear portion of the OD change curve. […] Curves (i) represent OD420 time course in the presence of (A) 0 nM; (◯) 1 nM; (□) 2 nM; (Δ) 4 nM; (⋄) 6 nM; and (●) 15 nM of the inhibitor with linker […] (SEQ. ID. NO. 103), at 37° C. […] represent OD420 time course in the presence of (◯) 0 nM; (□) 2 nM; (Δ) 4 nM; (⋄) 6 nM; (●) 8 nM; (▪) 10 nM; (▴) 12 nM; and (♦) 15 nM; of the inhibitor with linker […] (SEQ. ID. NO. 58) at 25° C. Curves (k) represent OD420 time course in the presence of (◯) 0 nM; (□) 0.5 nM; (Δ) 1 nM; (⋄) 2 nM; (●) 3 nM; (▪) 4 nM; (▴) 5 nM; and (♦) 6 nM; of the inhibitor with linker […] (SEQ. ID. NO. 105) at 37° C. Curves (I) represent OD420 time course in the presence of (◯) 0 nM; (□) 0.25 nM; (Δ) 0.5 nM; (⋄) 1 nM; (●) 1.5 nM; (▪) 2 nM; and (▴) 2.5 nM; of the inhibitor with linker […] (SEQ. ID. NO. 104) at 37° C. Curves (m) represent OD420 time course in the presence of (◯) 0 nM; (□) 2 nM; (Δ) 4 nM; (⋄) 6 nM; (●) 8 nM; (▴) 10 nM; and (A) 12 nM; of the inhibitor with linker […] (SEQ. ID. NO. 106) at 37° C. Curves (n) represent OD420 time course in the presence of (◯) 0 nM; (□) 1 nM; (Δ) 2 nM; (⋄) 3 nM; (●) 4 nM; (▪) 5 nM; (▴) 6 nM; and (♦) 7 nM; of the inhibitor with linker […] (SEQ. ID. NO. 107) at 37° C. Curves (o) represent OD420 time course in the presence of (◯) 0 nM; (□) 4 nM; and (Δ) 8 nM; of the inhibitor with linker GQSHNR (SEQ. ID. NO. 108) at 37° C.
Other experimental conditions were as used for the assays described in FIG. 2.
as §1, with “Clotting” for “Peptides were freeze-dried and their identity was confirmed by ion-spray mass spectrometry. Clotting”, “points.” for “points. Peptide concentrations were determined spectrophotometrically using predicted extinction coefficients at 278 nm (Gill and von Hippel, 1989, 319-326).”

SMILES | Ki [1] [nM] | IC50 ([2]; IC50, nM (37° C.), 37° C.) [nM] | IC50 ([2]; IC50, nM (25° C.), 25° C.) [nM]
CC[C@H](C)[C@H](NC(=O)[C@H](CCC(=O)O)NC(=O)[C@H](CCC(=O)O)NC(=O)[C@H](Cc1ccccc1)NC(=O)[C@H](CC(=O)O)NC(=O)CNC(=O)[C@H](CO)NC(=O)CNC(=O)[C@H](CO)NC(=O)CNC(=O)[C@H](CO)NC(=O)CNC(=O)[C@H](CO)NC(=O)CNC(=O)[C@H](CO)NC(=O)CNC(=O)[C@H](CO)NC(=O)CNC(=O)[C@H]1CCCCN1C(=O)[C@H](CCCNC(=N)N)NS(=O)(=O)c1ccc(C(C)(C)C)cc1)C(=O)N1CCC[C@H]1C(=O)N[C@@H](CCC(=O)O)C(=O)N[C@@H](CCC(=O)O)C(=O)N[C@@H](Cc1ccc(O)cc1)C(=O)N[C@@H](CC(C)C)C(=O)N[C@@H](CCC(N)=O)C(=O)O [P3151] | 0.6 ± 0.1 | 0.5 ± 0.1 | 
CC[C@H](C)[C@H](NC(=O)[C@H](CCC(=O)O)NC(=O)[C@H](CCC(=O)O)NC(=O)[C@H](Cc1ccccc1)NC(=O)[C@H](CC(=O)O)NC(=O)CNC(=O)[C@H](CO)NC(=O)CNC(=O)[C@H](CO)NC(=O)CNC(=O)[C@H](CO)NC(=O)CNC(=O)[C@H](CO)NC(=O)CNC(=O)[C@H](CO)NC(=O)CNC(=O)[C@H](CO)NC(=O)CNC(=O)[C@H](CO)NC(=O)CNC(=O)[C@H](CO)NC(=O)CNC(=O)[C@H](CO)NC(=O)CNC(=O)[C@H](CO)NC(=O)CNC(=O)[C@H]1CCCCN1C(=O)[C@H](CCCNC(=N)N)NS(=O)(=O)c1ccc(C(C)(C)C)cc1)C(=O)N1CCC[C@H]1C(=O)N[C@@H](CCC(=O)O)C(=O)N[C@@H](CCC(=O)O)C(=O)N[C@@H](Cc1ccc(O)cc1)C(=O)N[C@@H](CC(C)C)C(=O)N[C@@H](CCC(N)=O)C(=O)O [P3153] | 2 ± 0.3 | 1 ± 0.1 | 
CC[C@H](C)[C@H](NC(=O)[C@H](CCC(=O)O)NC(=O)[C@H](CCC(=O)O)NC(=O)[C@H](Cc1ccccc1)NC(=O)[C@H](CC(=O)O)NC(=O)CNC(=O)[C@H](CO)NC(=O)CNC(=O)[C@H](CO)NC(=O)CNC(=O)[C@H](CO)NC(=O)CNC(=O)[C@H](CO)NC(=O)CNC(=O)[C@H](CO)NC(=O)CNC(=O)[C@H](CO)NC(=O)CNC(=O)[C@H](CO)NC(=O)CNC(=O)[C@H](CO)NC(=O)CNC(=O)[C@H](CO)NC(=O)CNC(=O)[C@H](CO)NC(=O)CNC(=O)[C@H](CO)NC(=O)CNC(=O)[C@H](CO)NC(=O)CNC(=O)[C@H](CO)NC(=O)CNC(=O)[C@H](CO)NC(=O)CNC(=O)[C@H]1CCCCN1C(=O)[C@H](CCCNC(=N)N)NS(=O)(=O)c1ccc(C(C)(C)C)cc1)C(=O)N1CCC[C@H]1C(=O)N[C@@H](CCC(=O)O)C(=O)N[C@@H](CCC(=O)O)C(=O)N[C@@H](Cc1ccc(O)cc1)C(=O)N[C@@H](CC(C)C)C(=O)N[C@@H](CCC(N)=O)C(=O)O [P3159] | 6.7 ± 1.9 | 3.5 ± 0.2 | 
CC[C@H](C)[C@H](NC(=O)[C@H](CCC(=O)O)NC(=O)[C@H](CCC(=O)O)NC(=O)[C@H](Cc1ccccc1)NC(=O)[C@H](CC(=O)O)NC(=O)CNC(=O)[C@H](CO)NC(=O)CNC(=O)[C@H](CO)NC(=O)CNC(=O)[C@H](CO)NC(=O)CNC(=O)[C@H](CO)NC(=O)CNC(=O)[C@H](CO)NC(=O)CNC(=O)[C@H](CO)NC(=O)CNC(=O)[C@H](CO)NC(=O)CNC(=O)[C@H](CO)NC(=O)CNC(=O)[C@H](CO)NC(=O)CNC(=O)[C@H](CO)NC(=O)CNC(=O)[C@H](CO)NC(=O)CNC(=O)[C@H](CO)NC(=O)CNC(=O)[C@H]1CCCCN1C(=O)[C@H](CCCNC(=N)N)NS(=O)(=O)c1ccc(C(C)(C)C)cc1)C(=O)N1CCC[C@H]1C(=O)N[C@@H](CCC(=O)O)C(=O)N[C@@H](CCC(=O)O)C(=O)N[C@@H](Cc1ccc(O)cc1)C(=O)N[C@@H](CC(C)C)C(=O)N[C@@H](CCC(N)=O)C(=O)O [P3160] | 4.6 ± 0.8 | 2.8 ± 0.1 | 
CC[C@H](C)[C@H](NC(=O)[C@H](CCC(=O)O)NC(=O)[C@H](CCC(=O)O)NC(=O)[C@H](Cc1ccccc1)NC(=O)[C@H](CC(=O)O)NC(=O)CNC(=O)[C@H](CO)NC(=O)[C@@H](NC(=O)[C@H](CCCCN)NC(=O)[C@H](CCC(=O)O)NC(=O)[C@H](Cc1ccc(O)cc1)NC(=O)[C@H](Cc1c[nH]cn1)NC(=O)[C@@H]1CCCN1C(=O)[C@H](CO)NC(=O)CNC(=O)[C@H]1CCCCN1C(=O)[C@H](CCCNC(=N)N)NS(=O)(=O)c1ccc(C(C)(C)C)cc1)C(C)C)C(=O)N1CCC[C@H]1C(=O)N[C@@H](CCC(=O)O)C(=O)N[C@@H](CCC(=O)O)C(=O)N[C@@H](Cc1ccc(O)cc1)C(=O)N[C@@H](CC(C)C)C(=O)N[C@@H](CCC(N)=O)C(=O)O [P3169] | 1 ± 0.2 |  | 0.4
CC[C@H](C)[C@H](NC(=O)[C@H](CCC(=O)O)NC(=O)[C@H](CCC(=O)O)NC(=O)[C@H](Cc1ccccc1)NC(=O)[C@H](CC(=O)O)NC(=O)CNC(=O)[C@H](CO)NC(=O)[C@@H](NC(=O)[C@H](CCCCN)NC(=O)[C@H](CCC(=O)O)NC(=O)[C@H](Cc1ccc(OP(=O)(O)O)cc1)NC(=O)[C@H](Cc1c[nH]cn1)NC(=O)[C@@H]1CCCN1C(=O)[C@H](CO)NC(=O)CNC(=O)[C@H]1CCCCN1C(=O)[C@H](CCCNC(=N)N)NS(=O)(=O)c1ccc(C(C)(C)C)cc1)C(C)C)C(=O)N1CCC[C@H]1C(=O)N[C@@H](CCC(=O)O)C(=O)N[C@@H](CCC(=O)O)C(=O)N[C@@H](Cc1ccc(O)cc1)C(=O)N[C@@H](CC(C)C)C(=O)N[C@@H](CCC(N)=O)C(=O)O [P3170] | 1.5 ± 0.4 |  | 0.7
